Measurements from the NIST ThermoML archive (doi:10.1021/acs.jced.6b00673).
Several values for one entry are separate records, joined by “and”; a condition that tells them apart may be missing. Equal values may be shown once.

Conditions: Liquid, Closed cell (Static) method

F/C=C/C(F)(F)F [trans-1,3,3,3-tetrafluoropropene]
Conditions	vapor or sublimation pressure
235.01 K	40.19 kPa
235.17 K	40.58 kPa
239.05 K	49.6 kPa
239.07 K	49.6 kPa and 49.61 kPa
242.03 K	57.54 kPa
242.04 K	57.54 kPa
245.15 K	66.85 kPa
245.16 K	66.94 kPa and 66.9 kPa
247.99 K	76.45 kPa
248.02 K	76.52 kPa
249.38 K	81.49 kPa
250.68 K	86.48 kPa
250.72 K	86.57 kPa
252.24 K	92.69 kPa and 92.75 kPa
252.58 K	94.2 kPa
256.25 K	110.47 kPa
258.72 K	122.66 kPa
258.74 K	122.75 kPa
262.01 K	140.52 kPa
264.78 K	157.04 kPa
268.27 K	179.98 kPa
271.72 K	205.14 kPa
274.51 K	227.45 kPa
277.43 K	252.66 kPa
280.73 K	283.77 kPa
284.07 K	318.06 kPa
287.25 K	353.65 kPa
290.51 K	393.03 kPa
293.33 K	429.86 kPa
296.67 K	476.7 kPa
299.73 K	523.05 kPa
302.71 K	571.25 kPa
303.98 K	592.72 kPa
306.42 K	635.82 kPa and 635.84 kPa
308.5 K	674.57 kPa
311.91 K	741.32 kPa and 741.51 kPa
314.3 K	791.29 kPa
314.31 K	791.42 kPa
316.04 K	829.03 kPa and 829.14 kPa
318.53 K	885.61 kPa
319.38 K	905.41 kPa and 905.49 kPa
320.96 K	943.34 kPa
323.48 K	1006.1 kPa
325.23 K	1051.7 kPa
327.75 K	1119.9 kPa
329.78 K	1177.5 kPa
332.09 K	1245.2 kPa
334.3 K	1312.8 kPa
336.51 K	1383.2 kPa
338.43 K	1446.6 kPa
340.44 K	1515 kPa
342.65 K	1593.5 kPa
344.94 K	1678 kPa
347.25 K	1766.4 kPa
349.48 K	1855 kPa
351.21 K	1926.4 kPa
353.31 K	2015.3 kPa
355.52 K	2112.5 kPa
358.52 K	2250 kPa
360.61 K	2349.9 kPa
362.53 K	2444.8 kPa
364.71 K	2556.2 kPa
366.86 K	2669.6 kPa
367.85 K	2724.3 kPa
368.95 K	2784.2 kPa
369.85 K	2835.5 kPa
371.01 K	2900.6 kPa
371.91 K	2953.8 kPa
372.81 K	3005.5 kPa
374.07 K	3082.4 kPa
374.9 K	3131.7 kPa
376.04 K	3203.1 kPa
377.04 K	3265.4 kPa
377.94 K	3323.5 kPa
378.57 K	3364.9 kPa
379.16 K	3402.3 kPa
379.51 K	3425.9 kPa
379.87 K	3450.3 kPa
380.02 K	3459.7 kPa
380.51 K	3493.5 kPa
